# Data as given in paper PMC8416018, “Characterization of the ABC methionine transporter from Neisseria meningitidis reveals that lipidated MetQ is required for interaction” (eLife, 2021).
# Biological target: T1, NLM-NmMetQ (Neisseria meningitidis, UniProt Q7DD63)
# T1 construct: gene NMB1946; made as in Nguyen et al. 2019; E. coli BL21(DE3) Gold
# T1 sequence (Q7DD63 22-287): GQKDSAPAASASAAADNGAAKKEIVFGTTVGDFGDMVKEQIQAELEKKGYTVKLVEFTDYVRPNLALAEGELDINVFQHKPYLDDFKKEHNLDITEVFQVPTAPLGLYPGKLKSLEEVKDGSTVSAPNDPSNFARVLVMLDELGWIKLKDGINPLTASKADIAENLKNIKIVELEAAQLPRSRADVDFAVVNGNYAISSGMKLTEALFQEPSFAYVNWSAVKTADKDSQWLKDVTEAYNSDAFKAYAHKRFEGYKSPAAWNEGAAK
# Assay: […] NMR CPMG relaxation, direct reporter binding
# Details: 43 uM protein, 2 mM reporter, T2 120 ms, 300 K
row,Structure (SMILES),-ln(CPMG/1D)
1,N[C@@H](CCSC(F)(F)F)C(=O)O [Trifluoromethyl-methionine],reporter molecule plus NLM-NmMetQ has a high -ln(CPMG/1D) ratio

# Biological target: T2, lipo-NmMetQ:NmMetNI (methionine site) (Neisseria meningitidis, UniProt Q7DD63)
# T2 construct: gene NMB1946; full-length MetQ, signal cleaved, triacylated at Cys20, C-terminal His10; MetNI with His10 on MetN; DDM-solubilized; E. coli; Methionine ABC transporter permease protein MetI
# T2 sequence (Q7DD63 20-287): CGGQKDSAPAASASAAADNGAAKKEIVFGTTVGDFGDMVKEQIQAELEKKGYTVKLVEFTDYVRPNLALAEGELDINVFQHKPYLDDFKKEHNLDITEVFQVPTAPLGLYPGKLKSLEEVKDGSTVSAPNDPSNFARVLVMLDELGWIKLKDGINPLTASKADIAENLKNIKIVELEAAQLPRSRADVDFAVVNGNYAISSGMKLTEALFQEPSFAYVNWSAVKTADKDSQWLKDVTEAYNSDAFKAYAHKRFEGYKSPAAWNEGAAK
# T2 sequence (Q9JXP2 1-245 partner): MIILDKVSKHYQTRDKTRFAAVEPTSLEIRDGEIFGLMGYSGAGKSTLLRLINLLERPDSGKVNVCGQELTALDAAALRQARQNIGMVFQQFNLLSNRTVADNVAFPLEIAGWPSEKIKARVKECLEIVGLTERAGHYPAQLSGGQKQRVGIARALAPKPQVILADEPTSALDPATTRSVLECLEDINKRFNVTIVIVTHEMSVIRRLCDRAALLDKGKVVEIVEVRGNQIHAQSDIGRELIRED
# T2 sequence (Q9JXP3 1-228 partner): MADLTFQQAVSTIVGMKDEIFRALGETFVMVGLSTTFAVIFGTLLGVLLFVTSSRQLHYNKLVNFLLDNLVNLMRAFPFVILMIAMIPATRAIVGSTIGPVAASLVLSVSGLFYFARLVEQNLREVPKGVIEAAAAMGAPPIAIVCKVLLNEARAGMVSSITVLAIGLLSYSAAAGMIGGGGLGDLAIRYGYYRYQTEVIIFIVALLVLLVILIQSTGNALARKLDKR
# Assay: EnzChek phosphate ATPase stimulation
# Type: biochemical
# Details: 2 mM ATP, NmMetNI:lipo-NmMetQ:analog 1:8:50 molar ratio, 5 mM MgCl2, pH 7.5, 37 C, 0.05% DDM
row,Structure (SMILES),EnzChek phosphate ATPase stimulation
1,CSCC[C@H](NC=O)C(=O)O [N-formyl-L-methionine],"methionine analogs led to substrate-stimulated ATPase activity: N-acetyl-L-methionine, N-formyl-L-methionine"

# Biological target: T1, NLM-NmMetQ
# Assay: […] NMR FAXS competition
# Type: binding
# Details: 43 uM protein, 43 uM analog, 2 mM trifluoromethyl methionine reporter, T2 120 ms, 300 K; competitive
row,Structure (SMILES),-ln(CPMG/1D)
1,CS(=N)(=O)CC[C@H](N)C(=O)O (stereo partly drawn) [L-methionine sulfoximine],"seleno-L-methionine, L-methionine sulfoximine, and L-norleucine were well tolerated"
2,CSCC[C@H](NC(C)=O)C(=O)O [N-acetyl-L-methionine],Addition of these analogs led to the respective complete or near complete displacement
3,CSCC[C@H](N)C(=O)O [L-methionine],L-methionine completely displaced the reporter molecule
4,C[Se]CC[C@H](N)C(=O)O [seleno-L-methionine],"seleno-L-methionine, L-methionine sulfoximine, and L-norleucine were well tolerated"
5,CSCC[C@H](NC=O)C(=O)O [N-formyl-L-methionine],Addition of these analogs led to the respective complete or near complete displacement
6,CSCC[C@@H](N)C(=O)O [D-methionine],D-methionine displaced less reporter than L-methionine
7,CCCC[C@H](N)C(=O)O [L-norleucine],"seleno-L-methionine, L-methionine sulfoximine, and L-norleucine were well tolerated"
8,CCOC(=O)[C@@H](N)CCSC [L-methionine ethyl ester],L-methionine ethyl ester only partially displaced the reporter molecule
9,CCSCC[C@H](N)C(=O)O [L-ethionine],addition of a methylene group (L-ethionine) was better tolerated
